Measurements taken from US20100137344A1, “INDUCTION OF ANALGESIA IN NEUROPATHIC PAIN” (University Court of the University of Edinburgh, priority 2006, published 2010).

What was measured:
[1] = test system: saphenous nerve afferents; test: Saphenous nerve afferent recordings after topical application to receptive field; type: in vivo, rat
Description: Antisense and mis-sense oligonucleotides were 22-mers with phosphorothioate bonds at the last two positions at 5′ and 3′ ends (MWG Biotech, Ebersberg, Germany). Antisense extended from base −10 to base +12 relative to the start of the open reading frame for the rat TRPM8 gene: 5′ C*T*CGAAGGACATCTTGCCGT*G*G 3′, where * represents phosphorothioate linkages. Mis-sense was designed with 4 inversions of C/G or A/T as appropriate at residues 3, 11, 14 and 22, preserving overall G/C content. BLAST searches of both oligonucleotides indicated no significant complementarity to any known gene sequence. 14-day or 7-day osmotic minipumps (for CCI experiments or naïve electrophysiology experiments respectively—Alzet Minipump, models 2002, 2001; Charles River, UK) containing oligonucleotides (1 μg/μl in sterile saline) were connected to canulae inserted under the dura of the spinal cord to level L5/6 and produced a predicted infusion rate of 0.5 μl/h. CCI surgery was performed at the same time as minipump implantation. Sensory tests were carried out to assess the time-course of behavioural sensitisation in animals which had also undergone a CCI injury. Icilin was applied topically rather than intrathecally so as to prevent any interference with the infusion canula. Peripheral nerve recordings and tissue harvesting were carried out after an interval of 4-5 days to allow time for protein knockdown.
Peripheral: Recordings of saphenous (sensory) nerve were made in naïve animals (n=7) to assess the effects of topical icilin on primary afferents. In addition, recordings were carried out on animals which had undergone TRPM8 antisense or mis-sense treatment beginning 4-5 days previously. Rats were anaesthetised (with 0.6 ml 25% urethane/100 g, i.p.) and the saphenous nerve was exposed and dissected from its associated vein and artery. Further dissection under liquid paraffin enabled identification of afferent preparations comprising a small number of fibres. The conduction velocity of single identified afferent fibres was determined using bipolar electrodes and the peripheral stimulus technique^[43]. Following isolation of preparations, icilin (200 μM in water with 0.2% DMF), (−)-menthol (4 mM in 25% ethanol) resiniferatoxin (1 mM in ethanol) or vehicle alone were applied to the hindlimb receptive fields and neuronal responses recorded using the Chart programme (version 3.6). Central: Recordings of spinal dorsal horn neurons were made in CCI animals, as described previously^[39]. Following halothane induction, the jugular vein and trachea were canulated and intravenous anaesthetic delivered: α-chloralose ([…], Fisher) and urethane ([…], Sigma), with small supplementary doses of α-chloralose as required throughout the experiment. Core body temperature was maintained at 37-38° C. by means of a thermostatically controlled heated blanket. The animal was placed in a stereotaxic frame, and the thoracolumbar spinal column was supported using three pairs of swan-necked clamps. A laminectomy was performed at L2-L5, and agar (2% in saline at 37° C.) was delivered over exposed cord to increase mechanical stability. Above the recording region the agar and spinal cord dura were removed and liquid paraffin poured into the pool. Extracellular recordings were made from single multireceptive neurons in laminae I-IV through the centre barrel of a seven-barrelled glass microelectrode filled with 4M NaCl (tip-diameter […], DC resistance 5-8 MΩ). The receptive fields of hair-follicle innervated neurons on the distal hindlimb were identified by an innocuous brush stimulus^[39]. Icilin (200 μM in water with 0.2% DMF) was applied peripherally to the receptive field of individual recorded neurons, and the effect on neuronal response to a rotating brush was recorded and analysed using Spike2 programme (Version 3.2, CED). […]

naïve rats = test: Intrathecal application in naïve rats, behavioural reflex testing (PWL, PWT); type: in vivo, rat; settings: icilin 10 nmol, (−)-menthol 200 nmol, data not shown
Procedure: Thermal sensitivity was assessed by measuring paw withdrawal latency (PWL, s) in response to a noxious thermal stimulus (Hargreaves' thermal stimulator, Linton Instrumentation, Diss, UK) directed to the hindpaw mid-plantar glabrous surface. Mechanical sensitivity was recorded as the paw withdrawal threshold (PWT, mN/mm^2) to calibrated von Frey filaments (Stoelting, Ill., US), as previously described^[39]. Sensitivity to noxious cold was assessed by placing animals in a waterbath with an aluminium floor containing 1 cm deep 4° C. water and counting the time the paw was held suspended over a 20 s period.
The following drugs were applied intrathecally in a 50 μl volume of saline-based vehicle at 37° C.: icilin (2.5-200 μM in saline with 0.2% dimethylformamide, DMF), LY 341495 (100 μM in saline), UBP 1112 (200 μM in saline), 2R,4R-APDC ((2R, 4R)-4-aminopyrrolidine-2,4-dicarboxylate), 300 μM in saline), ACPT-III ((1R,3R,4S)-1-aminocyclopentane-1,3,4-tricarboxylic acid), 3 mM in saline), AP-4, ((L-(1)-2-amino-4-phosphonobutyric acid), 3 mM in saline), naloxone (0.5 mM in saline), NMDA (75 μM in saline) and ACPC (1-aminocyclopropanecarboxylic acid, 15 μM in saline) (Tocris Cookson, Bristol, UK), (−)-menthol (1R,2S,5R-(−)-menthol, 4 mM in saline), cinnamaldehyde (1.5 mM in saline) and Ruthenium Red (5 μM in saline) (Sigma-Aldrich Co. Ltd, UK) and allicin (0.5 mM in saline with 0.5% DMF) and diallyl disulphide (DADS, 1 mM in saline with 0.5% DMF) (LKT Laboratories Inc., St Paul, Minn., USA). Drugs were injected into the L5/6 intrathecal space under brief halothane anaesthesia, using a 25-gauge needle microsyringe (BD Biosciences, Oxford, UK), as described previously^[39] in animals that were at peak levels of behavioural sensitisation. Behavioural reflex testing commenced 15 min following injection to allow recovery from anaesthesia^[40,41,42] and continued every 5 min thereafter until readings returned to baseline levels (n=6 in each case). We, and others^[40,41,42] find complete recovery from anaesthetic by 15 minutes. All appropriate controls were carried out to eliminate the possibility of effects due to vehicle or to injection procedure.
The TRPM8 channel activators, icilin and (−)-menthol were tested in CCI and naïve animals. The effects of icilin were additionally assessed in animals with CFA-induced inflammation or with lysolecithin-induced demyelination. Icilin was also co-administered with the μ-opioid receptor antagonist naloxone, the Group II metabotropic glutamate receptor (mGluR) antagonist, LY 341495, or the Group III mGluR antagonist, UBP 1112. The effects of these antagonists alone as well as effects of the Group II mGluR agonist, 2R,4R-APDC and the Group III mGluR agonists, ACPT-III and AP-4, were assessed in CCI animals. The TRPA1 channel activator, cinnamaldehyde, alone and with icilin, was tested in CCI animals and in naïve animals. Further TRPA1 channel activators, allicin and diallyl disulphide were assessed in naïve animals. Both icilin and cinnamaldehyde effects in CCI animals were also investigated in the additional presence of Ruthenium Red.

[2] = antisense-treated animals, topical icilin 200 μM, (−)-menthol 4 mM, resiniferatoxin 1 mM
[3] = mis-sense-treated animals, topical icilin 200 μM, (−)-menthol 4 mM
[4] = mis-sense-treated animals, topical icilin 200 μM, (−)-menthol 4 mM, resiniferatoxin 1 mM

| SMILES | firing frequency after drug [1, 2] | increase in firing frequency ([1]; antisense-treated animals, topical icilin 200 μM, resiniferatoxin 1 mM) | recorded slowly conducting fibres activated ([1]; antisense-treated naïve animals, icilin 200 μM topical, 3 out of 34) | recorded fine afferents with significant increase in firing frequency ([1]; icilin 200 μM to receptive field, naïve animals, 40 out of 185) | effect on large myelinated mechanoreceptors ([1]; icilin 200 μM, conduction velocities 6.8-15 ms^−1, n=43) | mean time to peak effect ([1]; icilin 200 μM, naïve animals) | firing frequency after drug ([1]; icilin 200 μM, naïve animals, baseline 4.5±2.5 Hz) | mean increase in firing frequency ([1]; icilin 200 μM, naïve animals, from baseline of 4.5±2.5 Hz) | recorded fibres activated [1, 3] | firing frequency after drug [1, 4] | increase in firing frequency [1, 4] | effect on reflex responses in naïve animals (naïve rats) | activation of afferents ([1]; antisense-treated animals, (−)-menthol 4 mM, 28 identified afferents recorded) |
| --- | --- | --- | --- | --- | --- | --- | --- | --- | --- | --- | --- | --- | --- |
| O=C1NC(c2cccc([N+](=O)[O-])c2)=CCN1c1ccccc1O [icilin, 1-(2′-hydroxyphenyl)-4-(3″-nitrophenyl)-1,2,3,6-tetrahydropyrimidin-2-one] | 12.7±0.6 Hz | approximately 2 fold | 8.8% | 21.6% | unaffected | 3.3 ± 0.5 min | 31.6 Hz | 7 fold | 25% | 23.1±3.2 Hz | 7 fold | without effect |  |
| CC(C)[C@@H]1CC[C@@H](C)C[C@H]1O [(−)-menthol, 1R,2S,5R-(−)-menthol] | 4.8±1.9 Hz |  |  |  |  |  |  |  | 20% | 38.9±7.6 Hz | approximately 8 fold | without effect | no obviously activated afferents |
